Test results published in US20120225852A1, “USE OF STEROID COMPOUNDS” (priority 2009, published 2012).

Experiments:
[1] = test system: experimental autoimmune encephalomyelitis (EAE); assay: MOG peptide-induced EAE, treatment from the day of EAE onset; format: in vivo, C57BL/6 mice; details: 2 mg/mouse i.p. daily from EAE onset until day 26
Description: Tests were also carried out to discover whether DHEA and its spiro-analogs were protective after the onset of experimental autoimmune encephalomyelitis (EAE). For these tests, acute EAE was induced in C57BL/6 mice, as previously described. […] Mice were monitored daily in a blinded fashion for clinical symptoms (paralysis). Tissues (brain, spinal cord, DLNs) were collected in order to perform histological evaluation (staining with H&E on brain and spinal cord sections) and ex vivo cultures for measurement of T cell responses and cytokine release.

[2] = test system: allergic airway inflammation; assay: Mouse model of allergic asthma (OVA/alum sensitization, aerosolized OVA); format: in vivo, BALB/c mice
Description: BALB/c mice were sensitized with 0.01 mg chicken ovalbumin (OVA) in 0.2 ml alum intraperitoneally on days 0 and 12, and were exposed to aerosolized OVA (5% for 20 min) on days 18-20.

[3] = test system: ongoing EAE in recipient mice; assay: Adoptive transfer of CD4+ T cells from treated EAE donors into recipients with ongoing EAE; format: in vivo

C[C@]12CC[C@H](O)CC1=CC[C@@H]1[C@@H]2CC[C@]2(C)C(=O)CC[C@@H]12 [DHEA, dehydroepiandrosterone]
degree of paralysis [1]: decreased | clinical course ([1]; FIG. 11): improvement/reversal | mean maximum score ([1]; FIG. 12): decrease | levels of OVA-specific IgE ([2]; 2 mg/mouse): significantly decreased | levels of OVA-specific IgG1 ([2]; 2 mg/mouse): significantly decreased | levels of OVA-specific IgG2a ([2]; 2 mg/mouse): significantly decreased | numbers of CD3+CD4+ CD25+ Foxp3+ T cells (T regulatory cells) ([2]; 2 mg/mouse): substantially increased | numbers of suppressive CD11c+PDCA-1+ plasmacytoid dendritic cells (pDCs) ([2]; 2 mg/mouse): substantially increased | numbers of eosinophils in the bronchoalveolar lavage (BAL) ([2]; 2 mg/mouse on days 0,1,2,12,13,14,18,19,20, vs PBS-treated mice, FIG. 14a): significantly decreased | numbers of lymphomononuclear cells in the bronchoalveolar lavage (BAL) ([2]; 2 mg/mouse, vs PBS-treated mice, FIG. 14a): significantly decreased | lung leukocytic infiltration ([2]; 2 mg/mouse, FIG. 14b): significantly decreased | OVA-specific T cell proliferation ([2]; draining lymph nodes, FIG. 14c): significantly decreased | allergic airway inflammation, Th2 responses and B cell responses ([2]; overall conclusion of Example 3): suppress | mean maximum EAE score ([3]; CD4+ T cell transfer into recipients with ongoing EAE, FIGS. 28 and 29): significant decrease | proliferation to MOG35-55 ex vivo ([3]; DLN cells and splenocytes of recipients, FIG. 30): significantly decreased
